Experimental data from PubChem BioAssay AID258 (DTP/NCI, 2004).
Toxic doses and inconclusive results are not listed.

System: CD2F1 mice, L1210 leukemia sc, survival T/C
Test: NCI In Vivo Anticancer Drug Screen. Data for tumor model L1210 Leukemia (subcutaneous) in CD2F1 (CDF1) mice
Conditions: endpoint: median survival time, higher = longer survival
In short: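 T/C ratio: treated-group survival or tumor size over vehicle-control group measurement, in mice carrying transplanted tumors.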

For `CS(=O)(=O)CS(=O)(=O)OCCCl`, the T/C (dose: 1.5 mg/kg/injection, schedule: Q03HX024 (ip), vehicle: other) was 106 % of control, the T/C (dose: 3.1 mg/kg/injection, schedule: Q03HX008 (ip), vehicle: other) was 109 % of control and the T/C (dose: 3.1 mg/kg/injection, schedule: Q03HX024 (ip), vehicle: other) was 113 % of control. For the same compound, the T/C (dose: 6.2 mg/kg/injection, schedule: Q01DX005 (iv), vehicle: other) was 104 % of control, the T/C (dose: 6.2 mg/kg/injection, schedule: Q03HX008 (ip), vehicle: other) was 115 % of control and the T/C (dose: 6.2 mg/kg/injection, schedule: Q03HX024 (ip), vehicle: other) was 154 % of control. The T/C (dose: 11.8 mg/kg/injection, schedule: Q03HX008 (ip), vehicle: dextrose) was 187 % of control, the T/C (dose: 12.5 mg/kg/injection, schedule: Q01DX001 (iv), vehicle: other) was 106 % of control and the T/C (dose: 12.5 mg/kg/injection, schedule: Q01DX005 (iv), vehicle: other) was 114 % of control. For the same compound, the T/C (dose: 12.5 mg/kg/injection, schedule: Q01DX009 (ip), vehicle: other) was 122 % of control, the T/C (dose: 12.5 mg/kg/injection, schedule: Q01DX009 (ip), vehicle: saline with Tween-80) was 123 % of control and the T/C (dose: 12.5 mg/kg/injection, schedule: Q03HX008 (ip), vehicle: other) was 155 % of control. For the same compound, the T/C (dose: 12.5 mg/kg/injection, schedule: Q03HX024 (ip), vehicle: other) was 240 % of control, the T/C (dose: 12.5 mg/kg/injection, schedule: Q04DX003 (ip), vehicle: other) was 112 % of control and the T/C (dose: 16.8 mg/kg/injection, schedule: Q03HX008 (ip), vehicle: dextrose) was 217 % of control. For the same compound, the T/C (dose: 24.0 mg/kg/injection, schedule: Q01DX009 (ip), vehicle: dextrose) was 168 % of control, the T/C (dose: 24.0 mg/kg/injection, schedule: Q03HX008 (ip), vehicle: dextrose) was 600 % of control and the T/C (dose: 25.0 mg/kg/injection, schedule: Q01DX001 (ip), vehicle: other) was 111 % of control. The T/C (dose: 25.0 mg/kg/injection, schedule: Q01DX001 (iv), vehicle: other) was 119 % of control, the T/C (dose: 25.0 mg/kg/injection, schedule: Q01DX009 (ip), vehicle: other) was 176 % of control and the T/C (dose: 25.0 mg/kg/injection, schedule: Q01DX009 (ip), vehicle: saline with Tween-80) was 154 % of control. The T/C (dose: 25.0 mg/kg/injection, schedule: Q03HX008 (ip), vehicle: other) was 618 % of control, the T/C (dose: 25.0 mg/kg/injection, schedule: Q03HX024 (ip), vehicle: other) was 618 % of control and the T/C (dose: 25.0 mg/kg/injection, schedule: Q04DX003 (ip), vehicle: other) was 124 % of control. For the same compound, the T/C (dose: 34.3 mg/kg/injection, schedule: Q01DX005 (ip), vehicle: dextrose) was 183 % of control, the T/C (dose: 34.3 mg/kg/injection, schedule: Q01DX009 (ip), vehicle: dextrose) was 204 % of control and the T/C (dose: 34.3 mg/kg/injection, schedule: Q03HX008 (ip), vehicle: dextrose) was 600 % of control. The T/C (dose: 49.0 mg/kg/injection, schedule: Q01DX001 (ip), vehicle: dextrose) was 153 % of control, the T/C (dose: 49.0 mg/kg/injection, schedule: Q01DX002 (ip), vehicle: dextrose) was 180 % of control and the T/C (dose: 49.0 mg/kg/injection, schedule: Q01DX005 (ip), vehicle: dextrose) was 238 % of control. For the same compound, the T/C (dose: 49.0 mg/kg/injection, schedule: Q01DX009 (ip), vehicle: dextrose) was 270 % of control, the T/C (dose: 49.0 mg/kg/injection, schedule: Q03HX008 (ip), vehicle: dextrose) was 600 % of control and the T/C (dose: 50.0 mg/kg/injection, schedule: Q01DX001 (oral), vehicle: other) was 107 % of control. The T/C (dose: 50.0 mg/kg/injection, schedule: Q01DX005 (ip), vehicle: other) was 207 % of control, the T/C (dose: 50.0 mg/kg/injection, schedule: Q01DX005 (iv), vehicle: other) was 226 % of control and the T/C (dose: 50.0 mg/kg/injection, schedule: Q01DX009 (ip), vehicle: other) was 317 % of control. For the same compound, the T/C (dose: 50.0 mg/kg/injection, schedule: Q01DX009 (ip), vehicle: saline with Tween-80) was 242 % of control, the T/C (dose: 50.0 mg/kg/injection, schedule: Q01DX009 (oral), vehicle: other) was 168 % of control and the T/C (dose: 50.0 mg/kg/injection, schedule: Q03HX008 (ip), vehicle: other) was 103 % of control. The T/C (dose: 50.0 mg/kg/injection, schedule: Q04DX003 (ip), vehicle: other) was 209 % of control, the T/C (dose: 70.0 mg/kg/injection, schedule: Q01DX001 (ip), vehicle: dextrose) was 180 % of control and the T/C (dose: 70.0 mg/kg/injection, schedule: Q01DX002 (ip), vehicle: dextrose) was 290 % of control. For the same compound, the T/C (dose: 70.0 mg/kg/injection, schedule: Q01DX005 (ip), vehicle: dextrose) was 600 % of control, the T/C (dose: 70.0 mg/kg/injection, schedule: Q01DX009 (ip), vehicle: dextrose) was 600 % of control and the T/C (dose: 100.0 mg/kg/injection, schedule: Q01DX001 (ip), vehicle: dextrose) was 240 % of control. The T/C (dose: 100.0 mg/kg/injection, schedule: Q01DX001 (ip), vehicle: other) was 618 % of control, the T/C (dose: 100.0 mg/kg/injection, schedule: Q01DX001 (iv), vehicle: other) was 618 % of control and the T/C (dose: 100.0 mg/kg/injection, schedule: Q01DX002 (ip), vehicle: dextrose) was 600 % of control. The T/C (dose: 100.0 mg/kg/injection, schedule: Q01DX005 (ip), vehicle: dextrose) was 600 % of control, the T/C (dose: 100.0 mg/kg/injection, schedule: Q01DX005 (ip), vehicle: other) was 618 % of control and the T/C (dose: 100.0 mg/kg/injection, schedule: Q01DX005 (iv), vehicle: other) was 618 % of control. The T/C (dose: 100.0 mg/kg/injection, schedule: Q01DX009 (ip), vehicle: dextrose) was 600 % of control, the T/C (dose: 100.0 mg/kg/injection, schedule: Q01DX009 (ip), vehicle: other) was 216 % of control and the T/C (dose: 100.0 mg/kg/injection, schedule: Q01DX009 (oral), vehicle: other) was 240 % of control. For the same compound, the T/C (dose: 100.0 mg/kg/injection, schedule: Q04DX003 (ip), vehicle: other) was 353 % of control, the T/C (dose: 142.9 mg/kg/injection, schedule: Q01DX001 (ip), vehicle: dextrose) was 600 % of control and the T/C (dose: 142.9 mg/kg/injection, schedule: Q01DX002 (ip), vehicle: dextrose) was 600 % of control. The T/C (dose: 142.9 mg/kg/injection, schedule: Q01DX005 (ip), vehicle: dextrose) was 101 % of control, the T/C (dose: 200.0 mg/kg/injection, schedule: Q01DX001 (oral), vehicle: other) was 618 % of control and the T/C (dose: 200.0 mg/kg/injection, schedule: Q01DX009 (oral), vehicle: other) was 384 % of control.
`C[C@H](N)C(=O)N[C@@H]1[C@H]2C(=C(O)C[C@@H](O)[C@@H]2O)C(=O)O[C@]1(C)C(Cl)Cl` was tested, and the T/C (dose: 0.37 mg/kg/injection, schedule: Q01DX009 (ip), vehicle: water) was 111 % of control, the T/C (dose: 0.62 mg/kg/injection, schedule: Q01DX005 (ip), vehicle: water) was 112 % of control and the T/C (dose: 0.62 mg/kg/injection, schedule: Q01DX005 (iv), vehicle: water) was 113 % of control. For the same compound, the T/C (dose: 0.75 mg/kg/injection, schedule: Q01DX009 (ip), vehicle: water) was 120 % of control, the T/C (dose: 0.75 mg/kg/injection, schedule: Q01DX009 (sc), vehicle: water) was 116 % of control and the T/C (dose: 1.25 mg/kg/injection, schedule: Q01DX005 (ip), vehicle: water) was 124 % of control. For the same compound, the T/C (dose: 1.5 mg/kg/injection, schedule: Q01DX009 (oral), vehicle: water) was 108 % of control, the T/C (dose: 3.0 mg/kg/injection, schedule: Q01DX009 (ip), vehicle: water) was 160 % of control and the T/C (dose: 3.0 mg/kg/injection, schedule: Q01DX009 (oral), vehicle: water) was 109 % of control. For the same compound, the T/C (dose: 3.0 mg/kg/injection, schedule: Q01DX009 (sc), vehicle: water) was 160 % of control, the T/C (dose: 6.0 mg/kg/injection, schedule: Q01DX009 (oral), vehicle: water) was 112 % of control and the T/C (dose: 12.0 mg/kg/injection, schedule: Q01DX009 (oral), vehicle: water) was 120 % of control.
